15 molecules from ChEMBL document CHEMBL5365523, “Design of a structure-activity relationship model of vitamin K epoxide reductase (VKORC1) inhibitors combining chemical synthesis of new compounds, enzymatic assays and molecular modelling” (Bioorg Med Chem, 2023) can be followed below.

Each structure is given as a SMILES string.

What is called half-life is the time needed for the level to fall by half in the phase considered. One may read the IC50 as the concentration that inhibits the measured activity by half.

Test system in one series: not listed separately
Description: Metabolic stability in rat hepatocytes assessed as half life. It is filed as ADME, cell-based, Hepatocyte.
On to `O=c1oc2ccccc2c(O)c1C(CC(O)c1ccc(-c2ccc(Br)cc2)cc1)c1ccccc1` (stereo not given) [BROMODIOLONE], for which the half-life was 170 days.
On to `O=c1oc2ccccc2c(O)c1C1CC(c2ccc(OCc3ccc(C(F)(F)F)cc3)cc2)Cc2ccccc21` (stereo not given), for which the half-life is 215 days.
For `O=c1oc2ccccc2c(O)c1C1CC(c2ccc(-c3ccccc3)cc2)Cc2ccccc21` (stereo not given), the half-life is 118 days.

For the next series, the target named is Vitamin K epoxide reductase complex subunit 1 (Homo sapiens, UniProt Q9BQB6). Nature of the series: Inhibition of recombinant human wild-type VKORC1 expressed in Pichia pastoris membrane incubated for 30 mins in presence of presence of dithiothreitol by LC-APCI/MS/MS analysis. It is filed as cell membranes.
Chain of Vitamin K epoxide reductase complex subunit 1 (Q9BQB6 whole entry, one chain of several): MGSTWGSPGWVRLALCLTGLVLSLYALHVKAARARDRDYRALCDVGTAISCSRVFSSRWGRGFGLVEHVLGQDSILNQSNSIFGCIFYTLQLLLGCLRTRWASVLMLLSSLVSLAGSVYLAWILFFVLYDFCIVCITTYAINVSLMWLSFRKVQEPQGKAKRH
For `CC(C)=CCc1c(O)c2ccccc2oc1=O` [ISOPRENYLCOUMARIN], the IC50 turned out to be 79000 nM.
On the same count and under the same terms, next, `CSc1ccc(Cc2c(O)c3ccccc3oc2=O)cc1`: 527 nM; `O=c1oc2ccccc2c(O)c1Cc1ccc2c(c1)OCO2`: 873 nM; `O=c1oc2ccccc2c(O)c1Cc1ccc(C(F)(F)F)cc1`: 498 nM.
On to `CC(c1ccccc1)c1c(O)c2ccccc2oc1=O` (stereo not given), for which the IC50 was 1530 nM.
Same read-out and setting: then `COc1ccc(Cc2c(O)c3ccccc3oc2=O)cc1`, with 2720 nM; and `CC(C)=CCC/C(C)=C\CC/C(C)=C\Cc1c(O)c2ccccc2oc1=O`, with 98 nM.
`O=c1oc2ccccc2c(O)c1C1CC(c2ccc(-c3ccc(Br)cc3)cc2)Cc2ccccc21` (stereo not given) [BRODIFACOUM]: the IC50 was found to be 150 nM.
Still for that read-out and setting: then `O=c1oc2ccccc2c(O)c1Cc1ccc(Br)cc1`, with 643 nM.
Regarding `CC(O)CC(c1ccccc1)c1c(O)c2ccccc2oc1=O` (stereo not given) [WARFARIN ALCOHOL], the IC50 is 12500 nM.
The same measure, in the same setting: next, `O=c1oc2ccccc2c(O)c1Cc1cccnc1`: 23900 nM; `COc1cccc(Cc2c(O)c3ccccc3oc2=O)c1`: 5530 nM.
